In one assay the test system is serum IgG antibodies. To be noted: sera 1:100 from iCope T cell assay responders and non-responders.
Assay [1] relates to expanded CD40L+4-1BB+ CD4+ short-term T cell lines. As to the kind of experiment: Restimulation of expanded short-term T cell lines with autologous APC and peptides or peptide pools. The assay is classed as cell-based, human. To be noted: T cell lines from 5 unexposed individuals.
For assay [2], the system named is CD3 surface expression in CD40L+4-1BB+ CD4+ T cells. In kind it is cell-based, human.
The subject of assay [3] is CD40L+4-1BB+ CD4+ T cells. As to the kind of experiment: Ex vivo T cell stimulation of PBMC, stimulation index of CD40L+4-1BB+ CD4+ T cells by flow cytometry. The assay is classed as cell-based, human. Background: Flow cytometry measures light scatter and fluorescence of single cells or particles in a stream.

We go through four substances from US20240159740A1, “METHOD FOR DIRECT ANALYSIS OF FUNCTIONAL AVIDITY OF T CELLS” (priority 2021, published 2024).

Several values for one entry are separate records, joined by “and”; a condition that tells them apart may be missing. Equal values may be shown once.

Experimental for serum IgG antibodies: After blocking (1 h, 30° C.) serum samples were diluted 1:100 and incubated for 1 h at 30° C. HRP-coupled, anti-human-IgG secondary antibody (Jackson Immunoresearch) was diluted 1:5000 (Jackson Immunoresearch) and added to the serum samples for 1 h at 30° C., then HRP substrate was added (TMB, Kem-En-Tec). The reaction was stopped by adding sulfuric acid and absorption was measured at 450 nm using a FlexStation 3.

With “Biotin-Ttds-PSKPSKRSFIEDLLFNKV-OH [204_-1]”, the “peptide binding IgG antibodies detected in serum” value in the assay with serum IgG antibodies is reported as “in all individuals”.

For the substance FIEDLLFNKVTLADA [compound 205], in assay [1], the “donors whose expanded SARS-CoV-2 S-II-cross-reactive T cells were stimulated by the peptide” value was “all 5 donors”.

Regarding SFIEDLLFNKVTLAD [iCope], the “donors in which reactive T cells increased in frequency and in functional avidity” value in assay [2] is 10 of 17. Also, in assay [2] (day 7 and day 14 after BNT162b2 primary vaccination, 31 donors), the “donors responding with high functional avidity T cells” value was found to be 94%. In addition, the “proportion of individuals with iCope-recognizing CD4+ T cells” value in assay [3] (BNT162b2 vaccinated individuals) amounted to 97%. For the same substance, the “proportion of individuals with iCope-reactive CD4+ T cells” value in assay [3] (SARS-CoV-2 / COVID-19 convalescents) is 50% and 50-60%. The “contribution of peptide-specific T cells to the CD40L+4-1BB+ cells in S-II stimulations” value in assay [3] (initially after BNT162b2 vaccination) is given as “up to 100%”. For the same substance, the “proportion of individuals with iCope-reactive CD4+ T cells” value in assay [3] (unexposed individuals) stood at 20%. In assay [3] (young, unexposed donors), the “strong responders (stim. index>3)” value is listed as 44% and the “weak responders (stim. index>1.5)” value was found to be 39%.

In the case of SKRSFIEDLLFNKVT [compound 204], the “donors whose expanded SARS-CoV-2 S-II-cross-reactive T cells were stimulated by the peptide” value in assay [1] was “all 5 donors”.
